{"source": "paper PMC3537913", "about": "(Clinical cancer research : an official journal of the …, 2012)", "key": {"[1]": {"details": "in vivo, cited from earlier work"}, "[2]": {"details": "once daily by mouth, in the combination"}, "[3]": {"details": "human, in vivo, po"}, "clinical": {"assay": "clinical", "details": "human, in vivo, po, 50 mg/m2"}, "[4]": {"assay": "Sorafenib and sorafenib N-oxide steady-state plasma concentrations, course 1", "type": "in vivo, human", "details": "for concentration at 7 day / concentration at 13 day / concentration at 21 day: human, plasma, oral"}, "[5]": {"tested_on": "circulating endothelial cells (CECs)", "assay": "Six-color flow cytometry of blood", "type": "in vivo, human", "details": "day 21, p = 0.01"}, "[6]": {"details": "pediatric phase I single agent study, cited from earlier work"}, "[7]": {"assay": "Sorafenib first-dose pharmacokinetics in patients", "type": "in vivo, human", "details": "for CL/F (apparent oral clearance): first dose (day 1); for Ka: first dose; for Cmax / Tmax / half-life: human, plasma, po"}, "[8]": {"details": "single-agent sorafenib, mean; cited from earlier work"}, "refractory solid tumors": {"tested_on": "refractory solid tumors", "details": "cited from earlier work"}, "[9]": {"details": "sorafenib 90 mg/m^2 twice daily, n 13, median (range)"}, "[10]": {"details": "sorafenib 110 mg/m^2 twice daily, n 4, median (range)"}, "[11]": {"details": "sorafenib 90 mg/m^2 oral, n 11, median (range)"}, "[12]": {"details": "sorafenib 110 mg/m^2 oral, n 4, median (range)"}}, "note": "Counter-ions that a name gives are not always drawn.", "data": [{"compound": "O=P1(N(CCCl)CCCl)NCCCO1", "note": "(stereo not shown) [cyclophosphamide, Cyclophosphamide]", "values": [{"measurement": "published mean AUC at 600 mg/m^2 relative to median AUC of this study", "setting": "12-fold higher oral dosage, ref 34 versus this study", "value": "~ 11 times"}, {"measurement": "BSA normalized apparent oral clearance in adults", "setting": "assuming average adult body surface area of 1.73 m^2, from ref 33", "value": 3.57, "unit": "L/h/m^2"}, {"measurement": "clearance after intravenous administration in children", "setting": "[1]; iv", "value": "2.9-4.23 L/h/m^2"}, {"measurement": "mean apparent oral clearance in adults", "setting": "[1]; po", "value": 6.18, "unit": "L/h"}, {"measurement": "recommended phase II dose, cyclophosphamide", "setting": "[2]", "value": 50, "unit": "mg/m^2"}, {"measurement": "cyclophosphamide absorption rate constant", "setting": "[3]", "value": 0.17, "unit": "h⁻¹"}, {"measurement": "cyclophosphamide apparent volume of distribution", "setting": "[3]; 50 mg/m2", "value": 2.28, "unit": "L/m^2"}, {"measurement": "AUC(0-inf)", "setting": "clinical", "value": 62.5, "unit": "µM·h"}]}, {"compound": "CNC(=O)c1cc(Oc2ccc(NC(=O)Nc3ccc(Cl)c(C(F)(F)F)c3)cc2)cc[n+]1[O-]", "note": "[sorafenib N-oxide]", "values": [{"measurement": "Sorafenib N-oxide Ctrough Day 7", "setting": "[4]; [9]", "value": "0.50 (0.11 – 4.5) mg/L"}, {"measurement": "Sorafenib N-oxide Ctrough Day 13", "setting": "[4]; [9]", "value": "0.54 (0.17 – 3.4) mg/L"}, {"measurement": "Sorafenib N-oxide Ctrough Day 7", "setting": "[4]; [10]", "value": "0.57 (0.37 – 1.5) mg/L"}, {"measurement": "Sorafenib N-oxide Ctrough Day 13", "setting": "[4]; [10]", "value": "0.37 (0.33 – 0.92) mg/L"}, {"measurement": "Sorafenib N-oxide Ctrough Day 21", "setting": "[4]; [10]", "value": "0.40 (0.20 – 0.78) mg/L"}]}, {"compound": "CNC(=O)c1cc(Oc2ccc(NC(=O)Nc3ccc(Cl)c(C(F)(F)F)c3)cc2)ccn1", "note": "[sorafenib, Sorafenib tosylate]", "values": [{"measurement": "concentration at 7 day", "setting": "[4]; 90 mg/m^2 twice daily", "value": 3500, "unit": "ng/mL"}, {"measurement": "concentration at 13 day", "setting": "[4]; 90 mg/m^2 twice daily", "value": 2500, "unit": "ng/mL"}, {"measurement": "concentration at 21 day", "setting": "[4]; 90 mg/m^2 twice daily", "value": 4800, "unit": "ng/mL"}, {"measurement": "concentration at 7 day", "setting": "[4]; 110 mg/m^2 twice daily", "value": 3000, "unit": "ng/mL"}, {"measurement": "concentration at 13 day", "setting": "[4]; 110 mg/m^2 twice daily", "value": 2100, "unit": "ng/mL"}, {"measurement": "concentration at 21 day", "setting": "[4]; 110 mg/m^2 twice daily", "value": 1600, "unit": "ng/mL"}, {"measurement": "correlation of sorafenib steady-state concentrations with CECs", "setting": "[5]", "value": "inversely correlated"}, {"measurement": "maximum tolerated dose (MTD)", "setting": "[6]; twice daily", "value": 200, "unit": "mg/m^2"}, {"measurement": "Grade 3 DLTs", "setting": "[6]", "value": "elevated lipase, hyponatremia, hand-foot syndrome (HFS), rash, hypertension, and elevated ALT"}, {"measurement": "objective responses", "setting": "[6]", "value": "No objective responses were observed"}, {"measurement": "CL/F (apparent oral clearance)", "setting": "[7]; [11]", "value": 44, "unit": "mL/min/m^2"}, {"measurement": "CL/F (apparent oral clearance)", "setting": "[7]; [12]", "value": 39, "unit": "mL/min/m^2"}, {"measurement": "Ka", "setting": "[7]; [11]", "value": "0.10 (0.038 – 0.72) h^−1"}, {"measurement": "Ka", "setting": "[7]; [12]", "value": "0.093 (0.080 – 0.15) h^−1"}, {"measurement": "Cmax", "setting": "[7]; 90 mg/m2", "value": 1100, "unit": "ng/mL"}, {"measurement": "Tmax", "setting": "[7]; 90 mg/m2", "value": 8.7, "unit": "h"}, {"measurement": "half-life", "setting": "[7]; 90 mg/m2", "value": 5.5, "unit": "h"}, {"measurement": "Cmax", "setting": "[7]; 110 mg/m2", "value": 1600, "unit": "ng/mL"}, {"measurement": "Tmax", "setting": "[7]; 110 mg/m2", "value": 11, "unit": "h"}, {"measurement": "half-life", "setting": "[7]; 110 mg/m2", "value": 10, "unit": "h"}, {"measurement": "metabolic conversion to sorafenib N-oxide, adult patients", "setting": "[8]", "value": "< 10", "unit": "%"}, {"measurement": "metabolic conversion to sorafenib N-oxide, children with AML", "setting": "[8]", "value": 33, "unit": "%"}]}, {"compound": "bevacizumab: VEGF-specific recombinant, humanized monoclonal antibody", "values": [{"measurement": "dose-limiting toxicities", "setting": "refractory solid tumors; in vivo", "value": "no dose-limiting toxicities (DLTs) were observed"}, {"measurement": "objective responses", "setting": "refractory solid tumors; pediatric phase I, single agent", "value": "No objective responses were observed"}]}]}
